≈ marks a conversion by molar mass, not a printed value. Read-outs that look alike come from different tables or passages of the source. Each block holds one compound with its values, some of them ahead of it.
Legend:
[1] = test system: H. pylori; assay: Anti H. pylori screening by disc diffusion susceptibility assay; assay type: cell-based, Helicobacter pylori; details: 72 h; for Inhibition zone diameter (score): 100 and 200 mg/disc (so in the source)
Experimental: (§1) The discs were impregnated with […] of each of the compounds, dissolved either in ethanol or DMSO, and the zone of inhibition was measured after 72 h of growth under microaerophilic conditions at 37° C. Inhibition zone diameter ranging 10-20 mm was given a score of ^+, 20-30 mm as ^++ and that of >30 mm as ^+++, as obtained employing dose range of […]/disc. The detailed structural information of the molecules is provided under ‘Description of the Compounds’.
(§2) Methods and protocols for the determination of inhibition zone diameter are as stated under Experiment 1, and that of MIC values by microbroth dilution assay as in Experiment 3. ‘Nil’ means zone of inhibition below 10 mm.
(§3) The anti H. pylori activity of all 16 flavonoid molecules, 2 naturally isolated and 14 synthetic derivatives, was screened by disc diffusion sensitivity assay employing 2 clinical strains HP001 and HP002, and three standard strains ATCC® 700392, 43504 and 49503. A 0.5 mL inoculum (10^8 CFU/mL) for each bacterial strain tested was flooded on freshly prepared Brain Heart Infusion (BHI) agar plates supplemented with 7% FCS, 0.5% IsoVitalex and 0.0025% DENT® and the discs (5 mm diameter) containing different compounds or antibiotics (dissolved either in ethanol or DMSO) were placed on the agar surface. After incubation for 3 days in a microaerophilic atmosphere at 37° C., the diameter of the zone of inhibition was measured (Glupczynsky, 1996; McNulty et al., 2002).

[2] = test system: H. pylori; assay: MIC and MBC by microbroth dilution assay; assay type: cell-based, Helicobacter pylori; details: Helicobacter pylori
Experimental: The compounds, serially diluted ([…]) in Muller Hinton broth containing 5% FCS, were incubated in 96-well microtitre plate containing fresh cultures of HP001 (˜5.5×10^6 CFU/mL) or ATCC® 43504 (2.65×10^6 CFU/ml) in a final volume of […]. After 72-h of incubation under microaerophilic condition at 37° C., […] of cultures wherein no growth had been detected were streaked on fresh brain heart infusion agar plates for MBC determination.
In microbroth dilution assay employing one clinical and one standard strain, both the bacteriostatic and the bactericidal values were determined for all four compounds as well as for clarithromycin (Table 4). Two-fold serial dilutions were prepared in 96-well microtitre plate containing a total volume of 0.1 mL Mueller Hinton broth supplemented with 5% FCS. A 3-day old liquid culture was diluted 10 times in Mueller Hinton broth and 0.1 mL of these cultures was inoculated into each well to give a final concentration of ˜10^6 CFU/mL. The plates were incubated for 3 days in a microaerophilic atmosphere at 37° C. Following incubation, the plates were examined visually, and the lowest concentration showing complete inhibition of growth was recorded as the MIC of the respective compound (Hachem et al., 1996). Aliquots (0.1 mL) of 72-h culture in which no growth had been detected were taken from the wells of the above microtitre plates and used to streak on fresh BHI agar plates.

[3] = test system: H. pylori; assay: Acid stability study (pH ~2.0, 2 h, then MIC/MBC by microbroth dilution); assay type: cell-based, Helicobacter pylori; details: Helicobacter pylori
Experimental: Details of experimental protocol are described under Experiment 7. MIC/MBC values were determined by microbroth dilution assay.
A 100 μL stock of CPP-1, NMC-1, NMC-2 and CPP-3 (1-2 mg/mL) was treated with 20-30 μL of 0.12 NHCl to bring the pH of the solution to ^˜2.0, and kept at 25° C. for 2 h (Funatogawa et al., 2004). Such acid-treated samples were then serially diluted (2 fold) with medium in 96-well microtitre plates to determine the MIC and the MBC values by microbroth dilution assay as detailed under Experiment 3.

[4] = test system: H. pylori; assay: Time kill kinetic analyses in biphasic culture; assay type: cell-based, Helicobacter pylori
[5] = test system: H. pylori; assay: Anti H. pylori spectrum (MIC) by agar dilution method; assay type: cell-based, Helicobacter pylori; details: Helicobacter pylori; for MIC50: MIC against 50% of the strains of the panel, read-out: MIC50
Experimental: MIC was determined using agar dilution assay following the CLSI® guidelines. Six clinical isolates and four standard strains were used for this study. Five microlitre of freshly grown 3-day old culture (˜1×10^8 CFU/mL) was streaked in plates containing 2-fold serial dilution of the compounds ranging […], and incubated under microaerophilic condition at 37° C. After 72 h, the plates were inspected visually for absence of growth to assess the MIC values. The experiment was performed in duplicates. MIC50 is defined as the dose (μg/ml) required for killing 50% of the strains.
Plates contained two-fold serial dilutions of the compounds ranging from […]. Five microlitres of 3-day old freshly grown H. pylori culture (^˜10^8 CFU/mL) was inoculated onto drug-containing BHI agar plates supplemented with 7% FCS, 0.5% IsoVitalex and 0.0025% DENT®, which were then incubated for 3 days under microaerophilic condition at 37° C.

[6] = test system: H. pylori; assay: Anti H. pylori screening by disc diffusion susceptibility assay; assay type: cell-based, Helicobacter pylori; set-up: key: strongly active (diameter>30 mm) and were given a score of 3^+; intermediate active (^˜20-30 mm diameter) and were given a score of 2^+; moderately active (^˜10-20 min diameter) and were given a score of 1^+; not active (>10 mm diameter); details: 100 and 200 μg/disc, majority of the strains
Experimental: as §1, §2, §3

[7] = test system: H. pylori; assay: as above; assay type: cell-based, Helicobacter pylori; set-up: key: strongly active (3^+, diameter>30 mm); intermediate active (2^+, ˜20-30 mm diameter); moderately active (1^+, ˜10-20 mm diameter); not active (<10 mm diameter); details: two doses, majority of the strains
Experimental: as §1, §2, §3

[8] = target: T1, pig gastric H^+,K^+-ATPase (Sus scrofa, UniProt P19156); assay: Gastric H+,K+-ATPase activity assay; assay type: biochemical
T1 construct: tubulovesicular and apical membranes, isolated from freshly slaughtered pig gastric mucosa; from tissue; host or cells: pig gastric mucosa (membrane fraction by density gradient centrifugation)
Experimental: The data are averages of 3-4 determinations each carried out in triplicate. The assay system contained 10 mM PIPES-Tris (pH 6.8), 2 mM each of ATP and MgCl2 with or without 10 mM KCl and about […] in a final volume of 1 mL. Both blank and experimental tubes with or without CPP-1 at different concentrations were preincubated with otherwise complete assay mixture at 37° C. for 10 min before initiating the reaction with the substrate ATP. K^+-stimulated activity referred to as H^+,K^+-ATPase activity, was calculated as the difference between the activity in presence of Mg^2+ plus K^+ and the basal activity (Mg^2+-ATPase) in presence of Mg2^+ alone. The specific activity of H^+,K^+-ATPase in control sets was in the range of 40-50 μmole Pi/mg protein/h.
The effect of CPP-1 on gastric H^+K^+-ATPase was investigated. Isolation of pig gastric mucosal membranes, rich in H^+,K^+-ATPase activity, was carried out by density gradient centrifugation technique (Ray, 1978). The enzyme assay system contained 10 mM PIPES-Tris (pH 6.8), 2 mM each of ATP and MgCl with or without 10 mM KCl and about […] in a final volume of 1 mL. Both blank and experimental tubes with or without CPP-1 at different concentrations were preincubated with otherwise complete assay mixture at 37° C. for 10 min before initiating the reaction with the substrate ATP. After appropriate time of incubation with ATP at 37° C., the reaction was terminated with the addition of 1 mL of ice-cold TCA (14%, w/v). The liberated inorganic phosphate (Pi) was estimated essentially by the method of Sanui (1974). K^+-stimulated activity referred to as H^+,K^+-ATPase activity, was calculated as the difference between the activity in presence of Mg^2+ plus K^+ and the basal activity (Mg^2+-ATPase) in presence of Mg^2+ alone. The specific activity of H^+,K^+-ATPase was expressed as micromoles of Pi liberated per hour per milligram protein. The data are averages of 3-4 determinations each carried out in triplicate. The specific activity of H^+,K^+-ATPase in control sets was in the range of 40-50 μmole Pi/mg protein/h.

[9] = ATCC43504, microbroth dilution, ATCC 43504

T1 sequence (P19156 2-1034 limits assumed): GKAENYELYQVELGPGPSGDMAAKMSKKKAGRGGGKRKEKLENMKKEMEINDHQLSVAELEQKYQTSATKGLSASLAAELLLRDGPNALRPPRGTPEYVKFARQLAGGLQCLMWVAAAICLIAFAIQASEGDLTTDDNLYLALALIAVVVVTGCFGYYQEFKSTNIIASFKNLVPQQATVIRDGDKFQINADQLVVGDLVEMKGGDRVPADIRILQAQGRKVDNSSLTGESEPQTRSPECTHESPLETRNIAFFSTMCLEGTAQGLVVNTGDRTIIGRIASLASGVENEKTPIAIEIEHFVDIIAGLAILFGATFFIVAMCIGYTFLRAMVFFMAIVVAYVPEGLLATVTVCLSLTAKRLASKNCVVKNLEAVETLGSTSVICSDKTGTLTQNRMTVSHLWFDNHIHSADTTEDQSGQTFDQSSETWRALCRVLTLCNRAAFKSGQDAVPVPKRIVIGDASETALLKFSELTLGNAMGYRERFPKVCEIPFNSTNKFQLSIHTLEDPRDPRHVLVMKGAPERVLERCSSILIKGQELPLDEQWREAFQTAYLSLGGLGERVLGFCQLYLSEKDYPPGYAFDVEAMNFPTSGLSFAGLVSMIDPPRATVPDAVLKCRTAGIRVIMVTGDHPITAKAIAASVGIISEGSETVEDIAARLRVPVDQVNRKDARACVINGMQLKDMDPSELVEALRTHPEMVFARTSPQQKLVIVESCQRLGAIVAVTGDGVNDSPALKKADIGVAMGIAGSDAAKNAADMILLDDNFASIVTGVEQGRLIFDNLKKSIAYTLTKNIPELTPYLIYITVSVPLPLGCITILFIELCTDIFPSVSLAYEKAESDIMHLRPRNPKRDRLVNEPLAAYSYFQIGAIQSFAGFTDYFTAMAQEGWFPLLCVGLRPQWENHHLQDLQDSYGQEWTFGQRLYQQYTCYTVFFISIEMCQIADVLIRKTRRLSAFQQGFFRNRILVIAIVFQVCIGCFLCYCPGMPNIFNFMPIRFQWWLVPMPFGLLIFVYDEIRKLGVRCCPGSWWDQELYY
T1 sequence (P18434 whole entry partner): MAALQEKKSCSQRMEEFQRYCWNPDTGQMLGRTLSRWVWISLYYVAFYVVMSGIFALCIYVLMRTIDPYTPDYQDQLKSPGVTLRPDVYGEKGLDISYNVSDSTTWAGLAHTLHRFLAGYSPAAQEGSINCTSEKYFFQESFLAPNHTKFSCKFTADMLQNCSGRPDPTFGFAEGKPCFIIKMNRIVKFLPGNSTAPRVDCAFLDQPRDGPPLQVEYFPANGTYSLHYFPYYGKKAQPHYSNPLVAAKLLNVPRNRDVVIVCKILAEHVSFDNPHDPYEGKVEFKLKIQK

Compound: O=c1cc(-c2ccccc2)oc2cc(OCCCCN3CCCCC3)cc(O)c12 [CPP-3, 5-Hydroxy-2-phenyl-7-(4-piperidin-1-yl-butoxy)-chromen-4-one]
Inhibition zone diameter (score) ([1]; ATCC standard strain 43504): ++ (20-30 mm as ^++)
Inhibition zone diameter (score) ([1]; ATCC standard strain 49503): ++ (20-30 mm as ^++)
Inhibition zone diameter (score) ([1]; ATCC standard strain 700392): ++ (20-30 mm as ^++)
zone of inhibition at 100 µg/disc ([1]; Helicobacter pylori, 100 and 200 μg/disc, majority of the strains, read-out: Activity class by inhibition zone diameter): > 30 mm
Inhibition zone diameter (score) ([1]; clinical strain HP001): ++ (20-30 mm as ^++)
Inhibition zone diameter (score) ([1]; clinical strain HP002): +++ (that of >30 mm as ^+++)
MBC [2, 9]: 25 µg/mL (≈ 63.5 µM)
MIC [2, 9]: 12.5 µg/mL (≈ 31.8 µM)
MBC ([2]; microbroth dilution, HP001): 25 µg/mL (≈ 63.5 µM)
MIC ([2]; microbroth dilution, HP001): 12.5 µg/mL (≈ 31.8 µM)
MBC ([3]; 2 h, pH ~2.0, 2 h, 25° C., 43504, read-out: MBC, Acid treated): < 50000 µg/mL
MIC ([3]; 2 h, pH ~2.0, 2 h, 25° C., 43504, read-out: MIC, Acid treated): 50000 µg/mL (≈ 127000 µM)
MBC ([3]; 2 h, pH ~2.0, 2 h, 25° C., HP001, read-out: MBC, Acid treated): 50000 µg/mL (≈ 127000 µM)
MIC ([3]; 2 h, pH ~2.0, 2 h, 25° C., HP001, read-out: MIC, Acid treated): 25000 µg/mL (≈ 63500 µM)
MBC ([3]; not acid treated, 43504, read-out: MBC, Control): 25000 µg/mL (≈ 63500 µM)
MIC ([3]; not acid treated, 43504, read-out: MIC, Control): 12500 µg/mL (≈ 31800 µM)
MBC ([3]; not acid treated, HP001, read-out: MBC, Control): 25000 µg/mL (≈ 63500 µM)
MIC ([3]; not acid treated, HP001, read-out: MIC, Control): 12500 µg/mL (≈ 31800 µM)
time to kill the bacteria totally ([4]; ATCC 43504, 50 μg/mL): about 12 h
time to complete killing ([4]; ATCC 43504, 2×MIC (clarithromycin 0.08, CPP-1 and NMC-1 12.5, NMC-2 and CPP-3 25 μg/mL)): about 12 h
killing at MIC dose ([4]; ATCC 43504, MIC ([…])): no killing potency
killing at MIC dose (1×MIC) ([4]; HP001, up to 36 h): could not exert any effect on bactericidal activity
MIC50 ([5]; 72 h): ~12.5 µg/mL (≈ 31.8 µM)
MIC ([5]; 72 h, panel of 6 clinical isolates and 4 standard strains, read-out: MIC Range): 6.25 to 100 µg/mL (≈ 15.9 to 254 µM)
MIC50 [5]: 12.5 µg/mL (≈ 31.8 µM)
MIC ([5]; clinical strain HP001, read-out: MIC): 25 µg/mL (≈ 63.5 µM)
MIC ([5]; clinical strain HP002, read-out: MIC): 25 µg/mL (≈ 63.5 µM)
MIC ([5]; clinical strain HP003, read-out: MIC): < 12.5 µg/mL
MIC ([5]; clinical strain HP004, read-out: MIC): < 12.5 µg/mL
MIC ([5]; clinical strain HP005, read-out: MIC): < 12.5 µg/mL
MIC ([5]; clinical strain HP006, read-out: MIC): < 12.5 µg/mL
MIC ([5]; standard strain 43504, read-out: MIC): 12.5 µg/mL (≈ 31.8 µM)
MIC ([5]; standard strain 43629, read-out: MIC): 100 µg/mL (≈ 254 µM)
MIC ([5]; standard strain 49503, read-out: MIC): 25 µg/mL (≈ 63.5 µM)
MIC ([5]; standard strain 700392, read-out: MIC): 25 µg/mL (≈ 63.5 µM)

Compound: 4-methyl-benzoic acid 5-hydroxy-6-methoxy-4-oxo-2-phenyl-4-H-chromen-yl ester [ORPM-1]
Activity class by inhibition zone diameter [6]: not active
Inhibition zone diameter (score) ([1]; ATCC standard strain 43504): Nil (‘Nil’ means zone of inhibition below 10 mm)
Inhibition zone diameter (score) ([1]; ATCC standard strain 49503): Nil (‘Nil’ means zone of inhibition below 10 mm)
Inhibition zone diameter (score) ([1]; ATCC standard strain 700392): Nil (‘Nil’ means zone of inhibition below 10 mm)
Inhibition zone diameter (score) ([1]; clinical strain HP001): + (Inhibition zone diameter ranging 10-20 mm was given a score of ^+)
Inhibition zone diameter (score) ([1]; clinical strain HP002): Nil (‘Nil’ means zone of inhibition below 10 mm)
Activity class by inhibition zone diameter [7]: not active

Compound: CN(C)CCCCCCOc1cc(O)c2c(=O)cc(-c3ccccc3)oc2c1 [CHN-1, 7-(6-Dimethylamino-hexyloxy)-5-hydroxy-2-phenyl-chromen-4-one]
Activity class by inhibition zone diameter [6]: not active
Inhibition zone diameter (score) ([1]; ATCC standard strain 43504): Nil (‘Nil’ means zone of inhibition below 10 mm)
Inhibition zone diameter (score) ([1]; ATCC standard strain 49503): Nil (‘Nil’ means zone of inhibition below 10 mm)
Inhibition zone diameter (score) ([1]; ATCC standard strain 700392): Nil (‘Nil’ means zone of inhibition below 10 mm)
Inhibition zone diameter (score) ([1]; clinical strain HP001): Nil (‘Nil’ means zone of inhibition below 10 mm)
Inhibition zone diameter (score) ([1]; clinical strain HP002): Nil (‘Nil’ means zone of inhibition below 10 mm)
Activity class by inhibition zone diameter [7]: not active

Percent inhibition of H^+, K^+-ATPase activity ([8]; 1 mg/assay (so in the source)): 20%
Percent inhibition of H^+, K^+-ATPase activity ([8]; 10 mg/assay (so in the source)): about 80%
inhibition of H^+,K^+-ATPase ([8]; dose range of 1-10 μg/assay): 20-80%
Compound: COc1ccc2[nH]c([S+]([O-])Cc3ncc(C)c(OC)c3C)nc2c1 (stereo not shown) [Omeprazole, reference compound]
